Patent publication US20240252583A1, “Compositions and Methods for Treating Persistent Postsurgical Pain” (priority 2021, published 2024)
Where two headings read alike, the source gives them in different places.

What was measured:
plasma cytokines = experiment: Plasma cytokine measurements in patients treated with DAPTA (capillary electrophoresis and ELISA); format: in vivo, humans
Excerpt: The specific cytokines IL-1β, IL-10 and IL-12 have been identified as imbalanced following total knee replacement surgeries which increases risk for persistent post-operative pain. Measurement of these cytokines may be used to predict response to therapy, such as treatment by any of the peptides, salts thereof, or compositions of these, including those herein. Since the administration of the peptide DAPTA normalizes multiple plasma cytokines associated with PPSP then DAPTA and other analogs as we have described may be used to treat chronic pain conditions, specifically PPSP. Five HIV patients received DAPTA, 3 mgs/day, by metered nasal spray for 6 to 8 weeks (mean 7+0.6 wks). Patients were not taking other concurrent anti-pain or anti-retroviral therapies. At the beginning and end of the study period heparinized blood was collected and immediately clarified by centrifugation. Plasma aliquots were made and stored frozen at −70 C° for further testing. All sample testing was done on blinded samples at independent testing centers.
Cytokine measurements in patients treated with DAPTA were made after capillary electrophoresis isolation of individual cytokine peaks, followed by enzyme-linked immunoassay using specific antibodies. […] Separated chemical compounds appear as peaks with different migration times in an electropherogram. The purified sample peaks were individually collected and concentration determined by a quantitative enzyme-linked immunosorbent assay (ELISA) using specific antibodies to determine the analyte concentration.

[1] = Plasma pharmacokinetics and acute tolerability of RAP-103 in non-human primates; format: in vivo, Rhesus macaques (Macaca mulatta)
Method: In non-human primates (rhesus monkeys) RAP-103 was dosed once on Day 1 by intravenous bolus injection at 1 mg/kg and plasma levels determined. […] Drug in plasma after a single IV dose (1 mg/Kg) was still measurable at anticipated therapeutic levels 96 hrs. post-dose in non-human primates as shown in FIG. 2B.

[2] = Plasma bioavailability and elimination half-life of RAP-103 (species not stated); format: in vivo; settings: oral, i.p., ss, and IV dosing
[3] = system: STZ-induced diabetic neuropathic pain; settings: oral administration for 7 days, FIG. 4
Method: Induction and assessment of diabetes in rats: Rats were fasted overnight and given a single intraperitoneal injection of STZ (60 mg/kg, Sigma-Aldrich) in citrate buffer (pH 4.5) to induce type I diabetes. The induction of diabetes was confirmed 72 h post-injection by blood glucose levels (Contour® blood glucose diagnostic kit, Bayer HealthCare, Canada). Body weight and blood glucose levels were measured before and 3 days post-STZ injection and once a week for three weeks post-diabetes induction. Only rats with blood glucose concentration consistently higher than 300 mg/dl were used for the study. Rats used for the study were monitored for persistent mechanical and cold allodynia (up to five months post-induction) and only animals with persistent pain were used. […]
Cold Allodynia: was assessed using the same apparatus as the von Frey test. Rats were allowed to adapt to the testing environment for at least 10 min. Then, a drop (50 μl) of acetone was applied with a glass syringe fitted with a blunted needle at the centre of the plantar face of a hind paw. Responses were monitored during 1 min after acetone application and were graded according to a 4-point scale: 0, no response; 1, quick withdrawal, flick or stamp of the paw; 2, prolonged withdrawal or repeated flicking of the paw; 3, repeated flicking of the paw with persistent licking directed at the ventral side of the paw. […]

[4] = Brain entry and pharmacokinetics of RAP-103 after oral gavage and IV dosing; format: in vivo, rats and guinea pigs
obesity = settings: oral, daily administration for 3 weeks
Method: A subject is diagnosed with obesity. The subject is prescribed a dosing regimen of a pharmaceutical composition. The pharmaceutical composition comprises a therapeutically effective amount of RAP-103. RAP-103 is administered orally to treat obesity.

[5] = system: STZ-induced diabetic neuropathic pain
Method: Chronic pain development was determined with behavior and molecular/cellular testing and inflammatory reactions in Streptozotocin (STZ)-induced diabetic rats treated with RAP-103.
Induction and assessment of diabetes in rats: Rats were fasted overnight and given a single intraperitoneal injection of STZ (60 mg/kg, Sigma-Aldrich) in citrate buffer (pH 4.5) to induce type I diabetes. The induction of diabetes was confirmed 72 h post-injection by blood glucose levels (Contour® blood glucose diagnostic kit, Bayer HealthCare, Canada). Body weight and blood glucose levels were measured before and 3 days post-STZ injection and once a week for three weeks post-diabetes induction. Only rats with blood glucose concentration consistently higher than 300 mg/dl were used for the study. Rats used for the study were monitored for persistent mechanical and cold allodynia (up to five months post-induction) and only animals with persistent pain were used.
This solution was prepared freshly for each experiment and kept for 8 days (duration of one experiment) at room temperature. Appropriate concentration for each dose was adjusted accordingly.
Treatment paradigms: Autoclaved water (vehicle) or RAP-103 (0.004, 0.02, 0.1 or 0.5 mg/kg b.w.) was administered daily for 8 days by oral gavage to rats with stable mechanical and cold allodynia (n=5 H2O; n=7 RAP-103).
Assessment of neuropathic pain: Tactile allodynia, mechanical sensitivity was assessed using calibrated. Animals were placed in plexiglass boxes on an elevated metal mesh floor and allowed 60 min for habituation before testing. A series of von Frey filaments with logarithmically incrementing stiffness (Stoelting) was applied perpendicular to the midplantar region of the hind paw. The 50% paw withdrawal threshold was determined using Dixon's up-down method. Withdrawal thresholds of both paws were averaged as one single value per animal.
Cold Allodynia: was assessed using the same apparatus as the von Frey test. Rats were allowed to adapt to the testing environment for at least 10 min. Then, a drop (50 μl) of acetone was applied with a glass syringe fitted with a blunted needle at the centre of the plantar face of a hind paw. Responses were monitored during 1 min after acetone application and were graded according to a 4-point scale: 0, no response; 1, quick withdrawal, flick or stamp of the paw; 2, prolonged withdrawal or repeated flicking of the paw; 3, repeated flicking of the paw with persistent licking directed at the ventral side of the paw. Cumulative scores were then obtained by summing the four scores for each rat, the minimum score being 0 (no response to any of the four trials) and the maximum possible score being 12 (repeated flicking and licking of paws on each of the four trials). Rats were habituated to the testing environment. […] All data is presented as means±SEM. Statistical analysis was performed by two-way ANOVA followed by Bonferroni post-tests. The criterion for statistical significance was p<0.05.

stress from PPSP = settings: oral pill, daily administration for one week
Method: A subject is diagnosed with stress from PPSP. A subject is prescribed a dosing regimen of a pharmaceutical composition. The pharmaceutical composition comprises a therapeutically effective amount of RAP-103. RAP-103 is administered orally as a pill to treat the stress from PPSP.

[6] = system: post-incisional mechanical allodynia; settings: RAP-103 0.5 mg/kg i.p.
Excerpt: Data are expressed as mean±standard error of the mean (S.E.M.), and p<0.05 was accepted as statistically significant.

[7] = system: mRNAs encoding CCL2, CCL3, CCR2, CCR5, IL1β, and TNFα
CX3CR1 = CX3CR1 (Homo sapiens, UniProt P49238); settings: CX3CL1 2.5 nM, FIG. 8
Method: All peptides were purified to >95% homogeneity and verified by HPLC isolation, amino acid analysis, and mass spectroscopy. Peptides were dissolved in sterile water and stored as frozen (−20° C.) aliquots at 0.1 mM until use. Chemotaxis was assayed in 96-well plates (NeuroProbe, Cabin John, MD) with […] pore size, PVP-free membranes. Purified human monocytes (>95%) prepared from healthy adult human donors by centrifugal elutriation (>95% pure) were resuspended in chemotaxis assay buffer (DMEM supplemented with 0.1% BSA) at a density of 2×10^6 cells/ml. Cells were labelled with 1.0 μM Calcein AM (Invitrogen) for 30 minutes at 37° C., 5% CO2. Following incubation, cells were washed once and resuspended in chemotaxis assay buffer (DMEM, 1 mg/ml BSA, 25 mM Hepes) at a density of 2×10^6 cells/ml. […] The filter plate ([…] pore size, PVP-free membrane) was snapped on over the filled wells and the monocytes were loaded onto the upper filter surface ([…] in 25 μl). […] At the conclusion of the test period, non-migrating cells were wiped off the upper filter surface and relative fluorescence units (RFUs) of the migrating cells from the lower surface determined by bottom reading in a spectrometer (M5 SpectraMax) at 485/530 nm (Ex/Em). Triplicate determinations were made and results are expressed as the mean Relative Fluorescence Units as depicted in FIG. 8.

[8] = plasma, five HIV patients, 3 mgs/day nasal spray, 6 to 8 weeks
[9] = partial nerve ligation and diabetic pain

Sequence of CX3CR1 (P49238 whole entry): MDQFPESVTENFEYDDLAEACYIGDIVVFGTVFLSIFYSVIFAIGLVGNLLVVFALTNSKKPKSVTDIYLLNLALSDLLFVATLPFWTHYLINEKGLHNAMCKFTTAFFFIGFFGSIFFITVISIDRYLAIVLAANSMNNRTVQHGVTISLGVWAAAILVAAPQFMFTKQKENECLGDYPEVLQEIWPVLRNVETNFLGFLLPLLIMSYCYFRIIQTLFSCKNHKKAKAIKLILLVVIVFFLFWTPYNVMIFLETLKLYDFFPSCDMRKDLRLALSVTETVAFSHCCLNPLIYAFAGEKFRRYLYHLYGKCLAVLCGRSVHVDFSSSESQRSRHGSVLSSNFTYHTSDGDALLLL

## dASTTTNYT-NH2 [DAPTA]
Plasma cytokines; intranasal dosing, P<0.005
  cytokines IL-4, IL-10, IL-12 and IL-13: increased significantly
  plasma levels of IL-1β, IL-6, IL-8, and TNFα: significant reductions
Plasma cytokines; plasma, **p < .005
  IL-1β % CHANGE BASELINE to POST-DRUG: −46%**
  IL-2 % CHANGE BASELINE to POST-DRUG: +395** %
  IL-4 % CHANGE BASELINE to POST-DRUG: +448** %
  IL-6 % CHANGE BASELINE to POST-DRUG: −28%**
  IL-8 % CHANGE BASELINE to POST-DRUG: −30%**
  IL-10 % CHANGE BASELINE to POST-DRUG: +350** %
  IL-12 % CHANGE BASELINE to POST-DRUG: +363** %
  IL-13 % CHANGE BASELINE to POST-DRUG: +416** %
  TNFα % CHANGE BASELINE to POST-DRUG: −23%**
Plasma cytokines; [8]
  IL-1β CYTOKINE MEAN ± s.e.m. Post-Treatment: 174 ± 26 pgs/ml
  IL-2 CYTOKINE MEAN ± s.e.m. Post-Treatment: 57 ± 9 pgs/ml
  IL-4 CYTOKINE MEAN ± s.e.m. Post-Treatment: 28 ± 8 pgs/ml
  IL-6 CYTOKINE MEAN ± s.e.m. Post-Treatment: 130 ± 21 pgs/ml
  IL-8 CYTOKINE MEAN ± s.e.m. Post-Treatment: 144 ± 76 pgs/ml
  IL-10 CYTOKINE MEAN ± s.e.m. Post-Treatment: 45 ± 5 pgs/ml
  IL-12 CYTOKINE MEAN ± s.e.m. Post-Treatment: 33 ± 7 pgs/ml
  IL-13 CYTOKINE MEAN ± s.e.m. Post-Treatment: 30 ± 9 pgs/ml
  TNFα CYTOKINE MEAN ± s.e.m. Post-Treatment: 260 ± 67 pgs/ml

## C[C@H](O)[C@@H](N)C(=O)N[C@@H](C(=O)N[C@H](CC(N)=O)C(=O)N[C@H](Cc1ccc(O)cc1)C(=O)N[C@@H](C(=O)O)[C@H](C)O)[C@H](C)O [RAP-103, All D-peptide-Thr-Thr-Asn-Tyr-Thr]
[1]; 1 mg/kg
  Cmax and AUC 0-T in male versus female monkeys: comparable
[1]; over seven days after dosing
  RAP-103-related changes in clinical observations or body weights: no acute toxicity
[1]; single IV dose 1 mg/Kg, FIG. 2B
  time post-dose at which drug in plasma was still measurable at anticipated therapeutic levels: ≥ 96 h
[2]; in vivo, read-out: half-life (HL) elimination (converted)
  half-life: ~2.7 h
[2]
  plasma bioavailability: significant plasma bioavailability
[3]
  cold allodynia: reductions
[4]; FIG. 2A
  brain entry by oral compared to IV dosing: preferentially entered the brain by oral compared to IV dosing
[4]; IV or oral gavage dosing
  brain entry: quickly entered the brain
[4]; IV or oral gavage dosing, FIG. 2A
  persistence at therapeutic levels in brain: at least 24 hrs
[4]; in vivo
  brain entry compared to plasma levels: preferentially enters the brain compared to plasma levels
obesity
  subject's weight: decreases
[5]; 0.004 mg/kg daily oral
  effect on mechanical allodynia by dose: not
[5]; 0.02 mg/kg daily oral
  effect on mechanical allodynia by dose: effective
[5]; 0.1 mg/kg daily oral
  effect on mechanical allodynia by dose: effective
[5]; 0.5 mg/kg daily oral
  effect on mechanical allodynia by dose: effective
[5]; daily oral gavage
  time until reversal of hypersensitivity became significant: 24 to 48 h
Stress from PPSP
  stress and pain in patient suffering from PPSP: reduced
[6]
  increase of the potency of morphine: over 2 fold
[7]; neuropathic pain, FIG. 5
  chemokine receptor CCR2: lowered
  chemokine receptor CCR5: lowered
[7]; oral administration for 7 days versus vehicle (H20), FIG. 5
  spinal cord mRNA encoding cytokines and chemokines: reductions
[7]; [9]
  CCL3: significantly reduced
  IL-1β: significantly reduced
  TNFα: significantly reduced

## all-D-ASTTTNYT [RAP-310]
CX3CR1; 0.01 pM
  CX3CR1 mediated human monocyte chemotaxis, % of control migration: 38 % of control migration
CX3CR1; 1 pM
  CX3CR1 mediated human monocyte chemotaxis, % of control migration: 24 % of control migration
